One assay concerns the target T1, Aurora-A (Homo sapiens, UniProt O14965).
T1 sequence (O14965 1-403): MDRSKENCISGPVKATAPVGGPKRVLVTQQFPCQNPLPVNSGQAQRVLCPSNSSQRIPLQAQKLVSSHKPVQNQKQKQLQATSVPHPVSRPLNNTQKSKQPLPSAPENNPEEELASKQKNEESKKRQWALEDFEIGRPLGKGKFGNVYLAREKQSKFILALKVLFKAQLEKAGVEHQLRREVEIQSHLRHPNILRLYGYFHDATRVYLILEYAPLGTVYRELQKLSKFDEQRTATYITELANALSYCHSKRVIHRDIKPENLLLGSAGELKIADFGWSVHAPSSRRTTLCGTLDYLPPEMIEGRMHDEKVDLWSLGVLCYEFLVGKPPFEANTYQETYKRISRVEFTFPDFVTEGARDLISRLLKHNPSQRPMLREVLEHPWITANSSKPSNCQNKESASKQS
The experiment in a line: Flashplate Aurora A enzyme inhibition assay. The class given is biochemical. The settings on record: Flashplate assay; IC50 range; read-out: Aurora-A inhibition. Summed up: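 This is a radiometric Flashplate format: plates were precoated with DTT, and compound (in 2% DMSO) was mixed with kinase buffer (pH 7.5 Tris, MgCl2, NaCl) containing 1 mM MBP, 20 μM ATP and ^33P-ATP. The reaction was started with 250 ng Aurora-A per well and incubated 2 h at RT. It was then stopped by 10 mM sodium pyrophosphate washing, and plates were scintillation-counted.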

In the next assay the test system is HCT116 cells. The experiment in a line: Cell viability assay (MTT) in HCT116 cell line. The settings on record: Homo sapiens, HCT-116, 72 hrs, IC50 range, read-out: HCT116 cell growth inhibition. The assay is classed as cell-based. The gist of the method: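 MTT read-out (4 hrs, 37 °C, DMSO extraction) following 72 hrs of treatment with 0-50 μM Aurora inhibitor. HCT116 cells were plated a day earlier and tested in triplicate; IC50 derived from the curve.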

The values that follow come from US8088761B2, “Enzyme inhibitors” (Cancer Research Technology Limited, priority 2005, dated 2012).

With `COc1ccc(CN2CCN(c3c(Br)cnc4[nH]c(-c5ccc(N6CCOCC6)cc5)nc34)CC2)cn1` [Example 118, 4-(4-(6-Bromo-7-(4-((6-methoxypyridin-3-yl)methyl)piperazin-1-yl)-3H-imidazo[4,5-b]pyridin-2-yl)phenyl)morpholine], the IC50 at Aurora-A and with HCT116 cells was under 500 nM each time.
Turning to `COc1ccc(-c2nc3c(N4CCN(Cc5cccc6c5OCO6)CC4)c(Br)cnc3[nH]2)cc1` [Example 119, 7-(4-(Benzo[d][1,3]dioxol-4-ylmethyl)piperazin-1-yl)-6-bromo-2-(4-methoxyphenyl)-3H-imidazo[4,5-b]pyridine], the IC50 on Aurora-A and in the assay on HCT116 cells was under 500 nM each time.
`Brc1cnc2[nH]c(-c3ccc(CN4CCOCC4)cc3)nc2c1N1CCN(Cc2cccc3c2OCO3)CC1` [Example 120, 4-(4-(7-(4-(Benzo[d][1,3]dioxol-4-ylmethyl)piperazin-1-yl)-6-bromo-3H-imidazo[4,5-b]pyridin-2-yl)benzyl)morpholine]: the IC50 on Aurora-A was under 500 nM; in the assay with HCT116 cells, 2000 to 50000 nM.
As for `COc1ccc(-c2nc3c(N4CCN(Cc5cncnc5)CC4)c(Br)cnc3[nH]2)cc1` [Example 121, 6-Bromo-2-(4-methoxyphenyl)-7-(4-(pyrimidin-5-ylmethyl)piperazin-1-yl)-3H-imidazo[4,5-b]pyridine], the IC50 at Aurora-A and with HCT116 cells was under 500 nM throughout.
`Brc1cnc2[nH]c(-c3ccc(N4CCOCC4)cc3)nc2c1N1CCN(Cc2cncnc2)CC1` [Example 123, 4-(4-(6-Bromo-7-(4-(pyrimidin-5-ylmethyl)piperazin-1-yl)-3H-imidazo[4,5-b]pyridin-2-yl)phenyl)morpholine]: the IC50 on Aurora-A is under 500 nM; with HCT116 cells, 500 to 2000 nM.
The like results for `COc1ccc(-c2nc3c(N4CCN(Cc5ccc(C(F)(F)F)nc5)CC4)c(Br)cnc3[nH]2)cc1` [Example 124, 6-Bromo-2-(4-methoxyphenyl)-7-(4-((6-(trifluoromethyl)pyridin-3-yl)methyl)piperazin-1-yl)-3H-imidazo[4,5-b]pyridine] were, in that order, under 500 nM and 500 to 2000 nM.
`FC(F)(F)c1ccc(CN2CCN(c3c(Br)cnc4[nH]c(-c5ccc(CN6CCOCC6)cc5)nc34)CC2)cn1` [Example 125, 4-(4-(6-Bromo-7-(4-((6-(trifluoromethyl)pyridin-3-yl)methyl)piperazin-1-yl)-3H-imidazo[4,5-b]pyridin-2-yl)benzyl)morpholine]: the IC50 on Aurora-A and in the assay on HCT116 cells was under 500 nM throughout.
`COc1ccc(-c2nc3c(N4CCN(Cc5c(C)noc5C)CC4)c(Br)cnc3[nH]2)cc1` [Example 127, 4-((4-(6-Bromo-2-(4-methoxyphenyl)-3H-imidazo[4,5-b]pyridin-7-yl)piperazin-1-yl)methyl)-3,5-dimethylisoxazole]: the results for the IC50 at Aurora-A and with HCT116 cells were under 500 nM and 500 to 2000 nM, respectively.
As to `Cc1noc(C)c1CN1CCN(c2c(Br)cnc3[nH]c(-c4ccc(CN5CCOCC5)cc4)nc23)CC1` [Example 128, 4-(4-(6-Bromo-7-(4-((3,5-dimethylisoxazol-4-yl)methyl)piperazin-1-yl)-3H-imidazo[4,5-b]pyridin-2-yl)benzyl)morpholine], the IC50 on Aurora-A and in the assay with HCT116 cells was under 500 nM each time.
Regarding `CC(c1ccncc1)N1CCN(c2c(Br)cnc3[nH]c(-c4ccc(CN5CCOCC5)cc4)nc23)CC1` (centres unmarked) [Example 129, 4-(4-(6-Bromo-7-(4-(1-(pyridin-4-yl)ethyl)piperazin-1-yl)-3H-imidazo[4,5-b]pyridin-2-yl)benzyl)morpholine], the IC50 at Aurora-A and in the assay on HCT116 cells was under 500 nM in each case.
For `CC(c1ccncc1)N1CCN(c2c(Br)cnc3[nH]c(-c4ccc(N5CCOCC5)cc4)nc23)CC1` (centres unmarked) [Example 130, 4-(4-(6-Bromo-7-(4-(1-(pyridin-4-yl)ethyl)piperazin-1-yl)-3H-imidazo[4,5-b]pyridin-2-yl)phenyl)morpholine], the IC50 was under 500 nM at Aurora-A and 500 to 2000 nM in the assay on HCT116 cells.
Turning to `CC(c1ccncc1)N1CCN(c2c(Br)cnc3[nH]c(-c4ccc(OCCN(C)C)cc4)nc23)CC1` (centres unmarked) [Example 131, 2-(4-(6-Bromo-7-(4-(1-(pyridin-4-yl)ethyl)piperazin-1-yl)-3H-imidazo[4,5-b]pyridin-2-yl)phenoxy)-N,N-dimethylethanamine], the IC50 on Aurora-A and with HCT116 cells was under 500 nM in each case.
In the case of `CC(C)(C)OC(=O)NCc1ccc(-c2nc3c(N4CCC(Cc5ccccc5)CC4)c(Br)cnc3[nH]2)cc1` [Example 132, tert-Butyl 4-(7-(4-benzylpiperidin-1-yl)-6-bromo-3H-imidazo[4,5-b]pyridin-2-yl)benzylcarbamate], the IC50 on Aurora-A was under 500 nM; with HCT116 cells, 2000 to 50000 nM.
As to `NCc1ccc(-c2nc3c(N4CCC(Cc5ccccc5)CC4)c(Br)cnc3[nH]2)cc1` [Example 133, (4-(7-(4-Benzylpiperidin-1-yl)-6-bromo-3H-imidazo[4,5-b]pyridin-2-yl)phenyl)methanamine], the IC50 is under 500 nM on Aurora-A and 500 to 2000 nM in the assay on HCT116 cells.
Consider `CC(C)(C)OC(=O)NCc1ccc(-c2nc3c(N4CCC(Oc5ccccc5)CC4)c(Br)cnc3[nH]2)cc1` [Example 134, tert-Butyl 4-(6-bromo-7-(4-phenoxypiperidin-1-yl)-3H-imidazo[4,5-b]pyridin-2-yl)benzylcarbamate], for which the IC50 at Aurora-A and in the assay on HCT116 cells was under 500 nM each time.
As for `NCc1ccc(-c2nc3c(N4CCC(Oc5ccccc5)CC4)c(Br)cnc3[nH]2)cc1` [Example 135, (4-(6-Bromo-7-(4-phenoxypiperidin-1-yl)-3H-imidazo[4,5-b]pyridin-2-yl)phenyl)methanamine], the IC50 at Aurora-A is under 500 nM; in the assay with HCT116 cells it was 500 to 2000 nM.
Take `CC(C)(C)OC(=O)N1CCN(c2ccc(-c3nc4c(N5CCN(Cc6cccnc6)CC5)c(Cl)cnc4[nH]3)cc2)CC1` [Example 136, tert-Butyl 4-(4-(6-chloro-7-(4-(pyridin-3-ylmethyl)piperazin-1-yl)-3H-imidazo[4,5-b]pyridin-2-yl)phenyl)piperazine-1-carboxylate]: the IC50 on Aurora-A fell in the range of 500 to 2000 nM; in the assay on HCT116 cells, 2000 to 50000 nM.
For the molecule `Clc1cnc2[nH]c(-c3ccc(N4CCNCC4)cc3)nc2c1N1CCN(Cc2cccnc2)CC1` [Example 137, 6-Chloro-2-(4-(piperazin-1-yl)phenyl)-7-(4-(pyridin-3-ylmethyl)piperazin-1-yl)-3H-imidazo[4,5-b]pyridine], the figures for the IC50 on Aurora-A and with HCT116 cells were under 500 nM and 500 to 2000 nM, respectively.
On to `Clc1cnc2[nH]c(-c3ccc(Cn4cccn4)cc3)nc2c1N1CCN(Cc2cccnc2)CC1` [Example 138, 2-(4-((1H-Pyrazol-1-yl)methyl)phenyl)-6-chloro-7-(4-(pyridin-3-ylmethyl)piperazin-1-yl)-3H-imidazo[4,5-b]pyridine], for which the IC50 on Aurora-A was under 500 nM; in the assay with HCT116 cells, 500 to 2000 nM.
As to `COc1ccc(-c2nc3c(N4CCN(Cc5cncnc5)CC4)c(Cl)cnc3[nH]2)cc1` [Example 139, 6-Chloro-2-(4-methoxyphenyl)-7-(4-(pyrimidin-5-ylmethyl)piperazin-1-yl)-3H-imidazo[4,5-b]pyridine], the IC50 on Aurora-A was under 500 nM; with HCT116 cells it was 500 to 2000 nM.
On to `CC(C)(C)OC(=O)N1CCN(Cc2ccc(-c3nc4c(N5CCN(Cc6cncnc6)CC5)c(Cl)cnc4[nH]3)cc2)CC1` [Example 140, tert-Butyl 4-(4-(6-chloro-7-(4-(pyrimidin-5-ylmethyl)piperazin-1-yl)-3H-imidazo[4,5-b]pyridin-2-yl)benzyl)piperazine-1-carboxylate], for which the IC50 at Aurora-A and in the assay with HCT116 cells was under 500 nM throughout.
Take `Clc1cnc2[nH]c(-c3ccc(CN4CCNCC4)cc3)nc2c1N1CCN(Cc2cncnc2)CC1` [Example 141, 6-Chloro-2-(4-(piperazin-1-ylmethyl)phenyl)-7-(4-(pyrimidin-5-ylmethyl)piperazin-1-yl)-3H-imidazo[4,5-b]pyridine]: the IC50 at Aurora-A was under 500 nM; in the assay with HCT116 cells, 500 to 2000 nM.
Consider `COc1ccc(-c2nc3c(N4CCN(C(C)c5ccncc5)CC4)c(Cl)cnc3[nH]2)cc1` (centres unmarked) [Example 142, 6-Chloro-2-(4-methoxyphenyl)-7-(4-(1-(pyridin-4-yl)ethyl)piperazin-1-yl)-3H-imidazo[4,5-b]pyridine], for which the IC50 on Aurora-A and in the assay on HCT116 cells was under 500 nM each time.
As to `CCN1CCN(c2c(Cl)cnc3[nH]c(-c4ccc(Cn5cccn5)cc4)nc23)CC1` [Example 143, 2-(4-((1H-pyrazol-1-yl)methyl)phenyl)-6-chloro-7-(4-ethylpiperazin-1-yl)-3H-imidazo[4,5-b]pyridine], the IC50 at Aurora-A and in the assay with HCT116 cells was under 500 nM throughout.
As for `COc1ccc(-c2nc3c(N4CCN(Cc5csc(C)n5)CC4)c(Br)cnc3[nH]2)cc1` [Example 144, 4-((4-(6-Bromo-2-(4-methoxyphenyl)-3H-imidazo[4,5-b]pyridin-7-yl)piperazin-1-yl)methyl)-2-methylthiazole], the IC50 on Aurora-A and in the assay on HCT116 cells was under 500 nM throughout.
